Experimental data as given in patent publication US8574831B2, “Mutational profiles in HIV-1 reverse transcriptase correlated with phenotypic drug resistance” (Virco N.V., priority 2000, dated 2013).

Tested on: HIV with mutations in the HIV protease sequence
Assay: Phenotypic fold resistance to protease inhibitors, protease mutations 84A/84L/84C/54M/54L/54V in a background (Examples 8-13)
Assay type: cell-based, HIV-1
Procedure: As is the case with the genotyping assays, the recombinant virus assay starts with the amplification of viral target sequences by means of PCR. The amplicons are incorporated into a proviral laboratory clone with sequences homologous to those present in the amplicon deleted. This generates a stock of chimeric viruses. The viruses are tested for their ability to grow in the presence of different concentrations of drugs. Results are obtained by calculating IC50 values for each inhibitor and by reporting the results as IC50 values, expressed in μM concentrations, or by computing the ratio of the IC50 values found for the chimeric virus to the IC50 values found for a wild type susceptible laboratory virus tested in parallel. In the latter case, resistance is expressed as “fold-resistance” compared to a wild-type susceptible HIV-1 strain. In order to meet the need for high-volume testing and a short turn-around time for an individual test, the latest generation of phenotyping assays has undergone further modifications. The use of reporter gene systems for susceptibility testing allows the implementation of laboratory automation and standardization. See Pauwels, et al., J. Virol. Methods 20, 309-321 (1998); Paulous, S., et al., International Workshop on HIV Drug Resistance, Treatment Strategies and Eradication, St. Petersburg, Fla., USA. Abstr. 46 (1997); and Deeks, S. G., et al., 2nd International Workshop on HIV Drug Resistance and Treatment Strategies, Lake Maggiore, Italy. Abstr. 53 (1998).
The ANTIVIROGRAM® assay (Virco) (WO 97/27480) is based on homologous recombination of patient derived HIV-1 gag/PR/RT sequences into a proviral HIV-1 clone correspondingly deleted for the gag/PR/RT sequences. See Pauwels, et al., J. Virol. Methods 20, 309-321 (1998). A similar assay (Phenosense ViroLogic) is based on enzymatic ligation of patient-derived PR/RT sequences into a correspondingly deleted proviral vector carrying an indicator gene, luciferase, inserted in the deleted HIV-1 envelope gene. See Deeks, S. G., et al., 2nd International Workshop on HIV Drug Resistance and Treatment Strategies, Lake Maggiore, Italy. Abstr. 53 (1998). Hertogs et al. Antimicrob. Agents Chemother. 44(3) 568-573 (2000) the disclosures of which are herein incorporated by reference.
The methods of monitoring HIV-1 drug resistance, may also be used in combination with phenotypic drug resistance testing of viral isolates. For example, in one embodiment, a phenotypic test is utilized that is based upon the construction of chimeric HIV-1 strains composed of the protease (PR) and reverse transcriptase (RT) gene sequences which are isolated and amplified from the patient viral RNA. These strains may subsequently be recombined inside CD4+ T cells with a standard laboratory isogenic (HXB2) HIV-1 DNA construct from which the PR/RT gene sequences were deleted. The recombinant strains may then be grown in the presence of the above-mentioned antiviral drugs and the susceptibility of the viral isolates may be expressed as fold-change value of the IC50 of the drug on the patient isolates over the IC50 of the drug on a wild-type laboratory reference strain.

## CC(C)(C)NC(=O)[C@@H]1CN(Cc2cccnc2)CCN1C[C@@H](O)C[C@@H](Cc1ccccc1)C(=O)N[C@H]1c2ccccc2C[C@H]1O [Indinavir, indinavir]
Table 12, V055199, genotype 10I + 33F + 54M + 90M
  Fold change in IC50: 2.3 fold
Table 13, V19263, genotype 77I
  Fold change in IC50: 0.4 fold
Table 13, V20160, genotype WT
  Fold change in IC50: 0.9 fold
Table 13, V021667, genotype 10I
  Fold change in IC50: 0.7 fold
Table 13, V030496, genotype 10I + 77I
  Fold change in IC50: 0.4 fold
Table 13, V048868, genotype 10I + 54L + 71V + 77I + 90M
  Fold change in IC50: 6.2 fold
Table 13, V048874, genotype 10I + 33F + 54L + 71V + 77I + 90M
  Fold change in IC50: 2.1 fold
Table 13, V048875, genotype 10I + 33F + 54L + 71V + 77I + 90M
  Fold change in IC50: 3.7 fold
Table 13, V048877, genotype 10I + 33F + 77I + 90M
  Fold change in IC50: 2.9 fold
Table 13, V048880, genotype 10I + 33F + 77I + 90M
  Fold change in IC50: 1.3 fold
Table 13, V052940, genotype 71V
  Fold change in IC50: 0.7 fold
Table 13, V052942, genotype 10I + 71V
  Fold change in IC50: 0.6 fold
Table 13, V052943, genotype 10I + 90M
  Fold change in IC50: 0.5 fold
Table 13, V052944, genotype 10I + 90M
  Fold change in IC50: 0.5 fold
Table 13, V052945, genotype 77I + 90M
  Fold change in IC50: 0.6 fold
Table 13, V052946, genotype 71V + 90M
  Fold change in IC50: 0.9 fold
Table 13, V052947, genotype 10I + 77I + 90M
  Fold change in IC50: 2.9 fold
Table 13, V052948, genotype 10I + 71V + 90M
  Fold change in IC50: 8.6 fold
Table 13, V052949, genotype 10I + 71V + 77I + 90M
  Fold change in IC50: 2.7 fold
Table 13, V052950, genotype 33F
  Fold change in IC50: 0.6 fold
Table 13, V052951, genotype 33F + 77I
  Fold change in IC50: 0.4 fold
Table 13, V052953, genotype 10I + 33F + 77I
  Fold change in IC50: 0.8 fold
Table 13, V052954, genotype 33F + 77I + 90M
  Fold change in IC50: 1.7 fold
Table 13, V052955, genotype 33F + 71V + 90M
  Fold change in IC50: 5.3 fold
Table 13, V052968, genotype 10L/I + 33F/L + 54L + 77I
  Fold change in IC50: 1.3 fold
Table 13, V052969, genotype 10I + 33F + 54L + 90M
  Fold change in IC50: 1.3 fold
Table 13, V052970, genotype 54L
  Fold change in IC50: 0.6 fold
Table 13, V052971, genotype 10I + 54L
  Fold change in IC50: 0.7 fold
Table 13, V052972, genotype 54L + 77I
  Fold change in IC50: 0.8 fold
Table 13, V052973, genotype 10I + 54L + 77I
  Fold change in IC50: 0.8 fold
Table 13, V052974, genotype 10I + 54L + 90M
  Fold change in IC50: 1.7 fold
Table 13, V052975, genotype 10I + 54L + 71V + 90M
  Fold change in IC50: 10.2 fold
Table 13, V052976, genotype 10I + 54L + 71V + 77I + 90M
  Fold change in IC50: 1.7 fold
Table 13, V053832, genotype 10I + 33F
  Fold change in IC50: 0.4 fold
Table 13, V053854, genotype 54L + 71V
  Fold change in IC50: 1.7 fold
Virco ID 214846, genotype 10I + 33F + 54V + 71V + 77I + 90M, vs mean IC50 of wild type laboratory HIV strain
  Fold change in IC50: 13.8 fold
Virco ID V021667, genotype 10I, vs mean IC50 of wild type laboratory HIV strain
  Fold change in IC50: 0.7 fold
Virco ID V030496, genotype 10I + 77I, vs mean IC50 of wild type laboratory HIV strain
  Fold change in IC50: 0.4 fold
Virco ID V048876, genotype 33F + 54V + 77I + 90M, vs mean IC50 of wild type laboratory HIV strain
  Fold change in IC50: 0.6 fold
Virco ID V048877, genotype 10I + 33F + 77I + 90M, vs mean IC50 of wild type laboratory HIV strain
  Fold change in IC50: 2.9 fold
Virco ID V048880, genotype 10I + 33F + 77I + 90M, vs mean IC50 of wild type laboratory HIV strain
  Fold change in IC50: 1.3 fold
Virco ID V052940, genotype 71V, vs mean IC50 of wild type laboratory HIV strain
  Fold change in IC50: 0.7 fold
Virco ID V052942, genotype 10I + 71V, vs mean IC50 of wild type laboratory HIV strain
  Fold change in IC50: 0.6 fold
Virco ID V052943, genotype 10I + 90M, vs mean IC50 of wild type laboratory HIV strain
  Fold change in IC50: 0.5 fold
Virco ID V052944, genotype 10I + 90M, vs mean IC50 of wild type laboratory HIV strain
  Fold change in IC50: 0.5 fold
Virco ID V052946, genotype 71V + 90M, vs mean IC50 of wild type laboratory HIV strain
  Fold change in IC50: 0.9 fold
Virco ID V052947, genotype 10I + 77I + 90M, vs mean IC50 of wild type laboratory HIV strain
  Fold change in IC50: 2.9 fold
Virco ID V052948, genotype 10I + 71V + 90M, vs mean IC50 of wild type laboratory HIV strain
  Fold change in IC50: 8.6 fold
Virco ID V052949, genotype 10I + 71V + 77I + 90M, vs mean IC50 of wild type laboratory HIV strain
  Fold change in IC50: 2.7 fold
Virco ID V052950, genotype 33F, vs mean IC50 of wild type laboratory HIV strain
  Fold change in IC50: 0.6 fold
Virco ID V052951, genotype 33F + 77I, vs mean IC50 of wild type laboratory HIV strain
  Fold change in IC50: 0.4 fold
Virco ID V052953, genotype 10I + 33F + 77I, vs mean IC50 of wild type laboratory HIV strain
  Fold change in IC50: 0.8 fold
Virco ID V052954, genotype 33F + 77I + 90M, vs mean IC50 of wild type laboratory HIV strain
  Fold change in IC50: 1.7 fold
Virco ID V052955, genotype 33F + 71V + 90M, vs mean IC50 of wild type laboratory HIV strain
  Fold change in IC50: 5.3 fold
Virco ID V052957, genotype 10I + 33F + 54V + 90M, vs mean IC50 of wild type laboratory HIV strain
  Fold change in IC50: 1.4 fold
Virco ID V052958, genotype 10I + 33F + 54V + 77I + 90M, vs mean IC50 of wild type laboratory HIV strain
  Fold change in IC50: 16.3 fold
Virco ID V052959, genotype 10I + 33F + 54V + 77I + 90M, vs mean IC50 of wild type laboratory HIV strain
  Fold change in IC50: 12.8 fold
Virco ID V052960, genotype 10I + 33F + 54V + 71V + 90M, vs mean IC50 of wild type laboratory HIV strain
  Fold change in IC50: 9.9 fold
Virco ID V052961, genotype 54V, vs mean IC50 of wild type laboratory HIV strain
  Fold change in IC50: 0.7 fold
Virco ID V052962, genotype 10I + 54V, vs mean IC50 of wild type laboratory HIV strain
  Fold change in IC50: 0.8 fold
Virco ID V052963, genotype 54V + 77I + 90M, vs mean IC50 of wild type laboratory HIV strain
  Fold change in IC50: 1.2 fold
Virco ID V052964, genotype 54V + 71V + 90M, vs mean IC50 of wild type laboratory HIV strain
  Fold change in IC50: 0.7 fold
Virco ID V052965, genotype 10I + 54V + 77I + 90M, vs mean IC50 of wild type laboratory HIV strain
  Fold change in IC50: 8.2 fold
Virco ID V052966, genotype 10I + 54V + 71V + 90M, vs mean IC50 of wild type laboratory HIV strain
  Fold change in IC50: 7.7 fold
Virco ID V052967, genotype 10I + 54V + 71V + 77I + 90M, vs mean IC50 of wild type laboratory HIV strain
  Fold change in IC50: 0.4 fold
Virco ID V053358, genotype 33F + 54V + 77I + 90M, vs mean IC50 of wild type laboratory HIV strain
  Fold change in IC50: 1.2 fold
Virco ID V053831, genotype 33F + 54V, vs mean IC50 of wild type laboratory HIV strain
  Fold change in IC50: 5.4 fold
Virco ID V053832, genotype 10I + 33F, vs mean IC50 of wild type laboratory HIV strain
  Fold change in IC50: 0.4 fold
